# ChEMBL document CHEMBL4257522, “Synthesis and preliminary anti-inflammatory and anti-bacterial evaluation of some diflunisal aza-analogs” (Medchemcomm, 2018)
# Activity calls are given as the source filed them. No cut-off for these calls is given here.
# Tests used:
# Macrophage cell line [1] = assay: Cytotoxicity against human PBMC-differentiated macrophages treated for 24 hrs followed by compound washout and measured after 48 hrs by MTT assay; format: cell-based
# Macrophage cell line [2] = assay: Antiinflammatory activity in human PBMC-differentiated macrophages assessed as inhibition of LPS-induced prostaglandin production at 0.01 to 10 uM measured after 24 hrs by ELISA; format: functional, cell-based
# Macrophage cell line [3] = assay: Induction of TNFalpha production in human PBMC-differentiated macrophages after 24 hrs by ELISA; format: cell-based
# Macrophage cell line [4] = assay: Induction of IL-8 production in human PBMC-differentiated macrophages after 24 hrs by ELISA; format: cell-based
# Macrophage cell line [5] = assay: Induction of IL-1beta production in human PBMC-differentiated macrophages after 24 hrs by ELISA; format: cell-based
# Macrophage cell line [6] = assay: Induction of prostaglandin production in human PBMC-differentiated macrophages after 24 hrs by ELISA; format: cell-based
# Staphylococcus aureus [7] = assay: Toxicity in Staphylococcus aureus ATCC 33592 up to 32 uM measured after 16 hrs; format: organism-based
# Streptococcus pyogenes [8] = assay: Toxicity in Streptococcus pyogenes ATCC 14289 up to 32 uM measured after 16 hrs; format: organism-based
# Enterococcus faecium [9] = assay: Toxicity in Enterococcus faecium ATCC 700221 up to 32 uM measured after 16 hrs; format: organism-based; settings: in vitro
# Escherichia coli [10] = assay: Toxicity in Escherichia coli ATCC 43894 up to 32 uM measured after 16 hrs; format: organism-based
# Staphylococcus aureus [11] = assay: Potentiation of methicillin-induced antibacterial activity against Staphylococcus aureus ATCC 33592 assessed as minimum modulatory concentration up to 32 uM measured after 16 hrs in presence of MIC/4 methicillin; format: functional; settings: ATCC 33592, 16 h, read-out: MEC
# Staphylococcus aureus [12] = assay: Potentiation of tetracycline-induced antibacterial activity against Staphylococcus aureus ATCC 33592 assessed as minimum modulatory concentration up to 32 uM measured after 16 hrs in presence of MIC/4 tetracycline; format: functional; settings: ATCC 33592, 16 h, read-out: MEC
# Streptococcus pyogenes [13] = assay: Potentiation of methicillin-induced antibacterial activity against Streptococcus pyogenes ATCC 14289 assessed as minimum modulatory concentration up to 32 uM measured after 16 hrs in presence of MIC/4 methicillin; format: functional; settings: ATCC 14289, 16 h, read-out: MEC
# Streptococcus pyogenes [14] = assay: Potentiation of ciprofloxacin-induced antibacterial activity against Streptococcus pyogenes ATCC 14289 assessed as minimum modulatory concentration up to 32 uM measured after 16 hrs in presence of MIC/4 ciprofloxacin; format: functional; settings: ATCC 14289, 16 h, read-out: MEC
# Streptococcus pyogenes [15] = assay: Potentiation of tetracycline-induced antibacterial activity against Streptococcus pyogenes ATCC 14289 assessed as minimum modulatory concentration up to 32 uM measured after 16 hrs in presence of MIC/4 tetracycline; format: functional; settings: ATCC 14289, 16 h, read-out: MEC
# Klebsiella pneumoniae [16] = assay: Potentiation of methicillin-induced antibacterial activity against Klebsiella pneumoniae ATCC 13883 assessed as minimum modulatory concentration up to 32 uM measured after 16 hrs in presence of MIC/4 methicillin; format: functional; settings: ATCC 13883, 16 h, read-out: MEC
# Klebsiella pneumoniae [17] = assay: Potentiation of geneticin-induced antibacterial activity against Klebsiella pneumoniae ATCC 13883 assessed as minimum modulatory concentration up to 32 uM measured after 16 hrs in presence of MIC/4 geneticin; format: functional; settings: ATCC 13883, 16 h, read-out: MEC
# Klebsiella pneumoniae [18] = assay: Potentiation of ciprofloxacin-induced antibacterial activity against Klebsiella pneumoniae ATCC 13883 assessed as minimum modulatory concentration up to 32 uM measured after 16 hrs in presence of MIC/4 ciprofloxacin; format: functional; settings: ATCC 13883, 16 h, read-out: MEC
# Klebsiella pneumoniae [19] = assay: Potentiation of tetracycline-induced antibacterial activity against Klebsiella pneumoniae ATCC 13883 assessed as minimum modulatory concentration up to 32 uM measured after 16 hrs in presence of MIC/4 tetracycline; format: functional; settings: ATCC 13883, 16 h, read-out: MEC
# Klebsiella pneumoniae [20] = assay: Potentiation of erythromycin-induced antibacterial activity against Klebsiella pneumoniae ATCC 13883 assessed as minimum modulatory concentration up to 32 uM measured after 16 hrs in presence of MIC/4 erythromycin; format: functional; settings: ATCC 13883, 16 h, read-out: MEC
# Enterococcus faecium [21] = assay: Potentiation of geneticin-induced antibacterial activity against Enterococcus faecium ATCC 700221 assessed as minimum modulatory concentration up to 32 uM measured after 16 hrs in presence of MIC/4 geneticin; format: functional; settings: ATCC 700221, 16 h, read-out: MEC
# Enterococcus faecium [22] = assay: Potentiation of ciprofloxacin-induced antibacterial activity against Enterococcus faecium ATCC 700221 assessed as minimum modulatory concentration up to 32 uM measured after 16 hrs in presence of MIC/4 ciprofloxacin; format: functional; settings: ATCC 700221, 16 h, read-out: MEC
# Enterococcus faecium [23] = assay: Potentiation of tetracycline-induced antibacterial activity against Enterococcus faecium ATCC 700221 assessed as minimum modulatory concentration up to 32 uM measured after 16 hrs in presence of MIC/4 tetracycline; format: functional; settings: ATCC 700221, 16 h, read-out: MEC
# Enterococcus faecium [24] = assay: Potentiation of erythromycin-induced antibacterial activity against Enterococcus faecium ATCC 700221 assessed as minimum modulatory concentration up to 32 uM measured after 16 hrs in presence of MIC/4 erythromycin; format: functional; settings: ATCC 700221, 16 h, read-out: MEC
# Pseudomonas aeruginosa [25] = assay: Potentiation of methicillin-induced antibacterial activity against Pseudomonas aeruginosa ATCC BAA-2108 assessed as minimum modulatory concentration up to 32 uM measured after 16 hrs in presence of MIC/4 methicillin; format: functional; settings: ATCC BAA-2108, 16 h, read-out: MEC
# Pseudomonas aeruginosa [26] = assay: Potentiation of geneticin-induced antibacterial activity against Pseudomonas aeruginosa ATCC BAA-2108 assessed as minimum modulatory concentration up to 32 uM measured after 16 hrs in presence of MIC/4 geneticin; format: functional; settings: ATCC BAA-2108, 16 h, read-out: MEC
# Pseudomonas aeruginosa [27] = assay: Potentiation of ciprofloxacin-induced antibacterial activity against Pseudomonas aeruginosa ATCC BAA-2108 assessed as minimum modulatory concentration up to 32 uM measured after 16 hrs in presence of MIC/4 ciprofloxacin; format: functional; settings: ATCC BAA-2108, 16 h, read-out: MEC
# Pseudomonas aeruginosa [28] = assay: Potentiation of tetracycline-induced antibacterial activity against Pseudomonas aeruginosa ATCC BAA-2108 assessed as minimum modulatory concentration up to 32 uM measured after 16 hrs in presence of MIC/4 tetracycline; format: functional; settings: ATCC BAA-2108, 16 h, read-out: MEC
# Pseudomonas aeruginosa [29] = assay: Potentiation of erythromycin-induced antibacterial activity against Pseudomonas aeruginosa ATCC BAA-2108 assessed as minimum modulatory concentration up to 32 uM measured after 16 hrs in presence of MIC/4 erythromycin; format: functional; settings: ATCC BAA-2108, 16 h, read-out: MEC
# Escherichia coli [30] = assay: Potentiation of methicillin-induced antibacterial activity against Escherichia coli ATCC 43894 assessed as minimum modulatory concentration up to 32 uM measured after 16 hrs in presence of MIC/4 methicillin; format: functional; settings: ATCC 43894, 16 h, read-out: MEC
# Escherichia coli [31] = assay: Potentiation of geneticin-induced antibacterial activity against Escherichia coli ATCC 43894 assessed as minimum modulatory concentration up to 32 uM measured after 16 hrs in presence of MIC/4 geneticin; format: functional; settings: ATCC 43894, 16 h, read-out: MEC
# Escherichia coli [32] = assay: Potentiation of ciprofloxacin-induced antibacterial activity against Escherichia coli ATCC 43894 assessed as minimum modulatory concentration up to 32 uM measured after 16 hrs in presence of MIC/4 ciprofloxacin; format: functional; settings: ATCC 43894, 16 h, read-out: MEC
# Escherichia coli [33] = assay: Potentiation of tetracycline-induced antibacterial activity against Escherichia coli ATCC 43894 assessed as minimum modulatory concentration up to 32 uM measured after 16 hrs in presence of MIC/4 tetracycline; format: functional; settings: ATCC 43894, 16 h, read-out: MEC
# Escherichia coli [34] = assay: Potentiation of erythromycin-induced antibacterial activity against Escherichia coli ATCC 43894 assessed as minimum modulatory concentration up to 32 uM measured after 16 hrs in presence of MIC/4 erythromycin; format: functional; settings: ATCC 43894, 16 h, read-out: MEC
Compound,IC50 (Macrophage cell line [1]),Activity (Macrophage cell line [3]),Activity (Macrophage cell line [4]),Activity (Macrophage cell line [5]),Activity (Macrophage cell line [6]),Activity (Staphylococcus aureus [7]),Activity (Streptococcus pyogenes [8]),Activity (Enterococcus faecium [9]),Activity (Escherichia coli [10]),minimal effective concentration (Staphylococcus aureus [11]),minimal effective concentration (Staphylococcus aureus [12]),minimal effective concentration (Streptococcus pyogenes [13]),minimal effective concentration (Streptococcus pyogenes [14]),minimal effective concentration (Streptococcus pyogenes [15]),minimal effective concentration (Klebsiella pneumoniae [16]),minimal effective concentration (Klebsiella pneumoniae [17]),minimal effective concentration (Klebsiella pneumoniae [18]),minimal effective concentration (Klebsiella pneumoniae [19]),minimal effective concentration (Klebsiella pneumoniae [20]),minimal effective concentration (Enterococcus faecium [21]),further results
C[n+]1cc(O)c(C(=O)[O-])cc1-c1ccccc1,91.4 µM,Non-Toxic,Non-Toxic,Non-Toxic,Non-Toxic,Non-Toxic,Non-Toxic,Non-Toxic,Non-Toxic,> 32 µM,> 32 µM,> 32 µM,> 32 µM,> 32 µM,> 32 µM,> 32 µM,> 32 µM,> 32 µM,> 32 µM,> 32 µM,inhibition (Macrophage cell line [2]): inactive; minimal effective concentration (Enterococcus faecium [22]): > 32 µM; minimal effective concentration (Enterococcus faecium [23]): > 32 µM; minimal effective concentration (Enterococcus faecium [24]): > 32 µM; minimal effective concentration (Pseudomonas aeruginosa [25]): > 32 µM; minimal effective concentration (Pseudomonas aeruginosa [26]): > 32 µM; minimal effective concentration (Pseudomonas aeruginosa [27]): > 32 µM; minimal effective concentration (Pseudomonas aeruginosa [28]): > 32 µM; minimal effective concentration (Pseudomonas aeruginosa [29]): > 32 µM; minimal effective concentration (Escherichia coli [30]): > 32 µM; minimal effective concentration (Escherichia coli [31]): > 32 µM; minimal effective concentration (Escherichia coli [32]): > 32 µM; minimal effective concentration (Escherichia coli [33]): > 32 µM; minimal effective concentration (Escherichia coli [34]): > 32 µM
O=C(O)c1cc(O)cnc1-c1ccccc1,87.9 µM,Non-Toxic,Non-Toxic,Non-Toxic,Non-Toxic,Non-Toxic,Non-Toxic,Non-Toxic,Non-Toxic,8 µM,1 µM,1 µM,> 32 µM,2 µM,> 32 µM,> 32 µM,> 32 µM,> 32 µM,> 32 µM,8 µM,inhibition (Macrophage cell line [2]): inactive; minimal effective concentration (Enterococcus faecium [22]): > 32 µM; minimal effective concentration (Enterococcus faecium [23]): 4 µM; minimal effective concentration (Enterococcus faecium [24]): 2 µM; minimal effective concentration (Pseudomonas aeruginosa [25]): 16 µM; minimal effective concentration (Pseudomonas aeruginosa [26]): > 32 µM; minimal effective concentration (Pseudomonas aeruginosa [27]): 8 µM; minimal effective concentration (Pseudomonas aeruginosa [28]): > 32 µM; minimal effective concentration (Pseudomonas aeruginosa [29]): 8 µM; minimal effective concentration (Escherichia coli [30]): > 32 µM; minimal effective concentration (Escherichia coli [31]): > 32 µM; minimal effective concentration (Escherichia coli [32]): > 32 µM; minimal effective concentration (Escherichia coli [33]): > 32 µM; minimal effective concentration (Escherichia coli [34]): > 32 µM
O=C(O)c1cnc2c(F)cc(F)cc2c1O,96.5 µM,Non-Toxic,Non-Toxic,Non-Toxic,Non-Toxic,Non-Toxic,Non-Toxic,Non-Toxic,Non-Toxic,0.5 µM,2 µM,1 µM,> 32 µM,4 µM,> 32 µM,> 32 µM,> 32 µM,> 32 µM,> 32 µM,4 µM,minimal effective concentration (Enterococcus faecium [22]): > 32 µM; minimal effective concentration (Enterococcus faecium [23]): 4 µM; minimal effective concentration (Enterococcus faecium [24]): 4 µM; minimal effective concentration (Pseudomonas aeruginosa [25]): 8 µM; minimal effective concentration (Pseudomonas aeruginosa [26]): > 32 µM; minimal effective concentration (Pseudomonas aeruginosa [27]): 4 µM; minimal effective concentration (Pseudomonas aeruginosa [28]): > 32 µM; minimal effective concentration (Pseudomonas aeruginosa [29]): 4 µM; minimal effective concentration (Escherichia coli [30]): > 32 µM; minimal effective concentration (Escherichia coli [31]): > 32 µM; minimal effective concentration (Escherichia coli [32]): > 32 µM; minimal effective concentration (Escherichia coli [33]): > 32 µM; minimal effective concentration (Escherichia coli [34]): > 32 µM
